Structures can show the parent of a compound that is named as a salt. Where only a bound is given, the exact number is not on record here.

The text below walks through data of US6638952B1, “Aromatic sulfonyl alpha-cycloamino hydroxamic acid compounds” (Pharmacia Corporation, priority 1997, dated 2003).

In one series the target is T1, recombinant human MMP-1 (Homo sapiens, UniProt P03956).
T1 construct: made in house; host or cells: transfected HT-1080 cells (provided by Dr. Howard Welgus, Washington University)
T1 sequence (P03956 100-469): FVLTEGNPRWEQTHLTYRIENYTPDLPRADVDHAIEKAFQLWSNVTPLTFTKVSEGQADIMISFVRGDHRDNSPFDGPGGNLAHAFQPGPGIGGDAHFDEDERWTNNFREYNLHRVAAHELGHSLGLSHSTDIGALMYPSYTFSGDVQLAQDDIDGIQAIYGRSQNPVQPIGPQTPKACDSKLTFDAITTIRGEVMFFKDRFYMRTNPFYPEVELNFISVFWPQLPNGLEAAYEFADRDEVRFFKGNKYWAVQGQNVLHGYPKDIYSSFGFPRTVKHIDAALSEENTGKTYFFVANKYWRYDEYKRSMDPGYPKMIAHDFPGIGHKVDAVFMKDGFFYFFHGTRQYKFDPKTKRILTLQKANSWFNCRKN
The series can be described thus: In vitro metalloprotease inhibition, fluorogenic peptide substrate. It is filed as biochemical. The following applies: for IC50: APMA-activated enzyme, room temperature, pH 7.5, substrate 4 μM.

For another series, the target named is T2, recombinant human MMP-13 (Homo sapiens, UniProt P45452).
T2 construct: made in house
Described as above. It is filed as biochemical. The following applies: for IC50: APMA-activated enzyme, room temperature, pH 7.5, substrate 4 μM.

In series [1] the test system is neovascularization of the corneal stroma. The series can be described thus: In vivo angiogenesis assay (corneal micropocket). As to conditions: mouse cornea, bFGF/sucralfate pellet, daily dosing, scored at day five; exemplary dose 50 mg/kg bid, po. The procedure:
The study of angiogenesis depends on a reliable and reproducible model for the stimulation and inhibition of a neovascular response. The corneal micropocket assay provides such a model of angiogenesis in the cornea of a mouse.
In this assay, uniformly sized Hydron™ pellets containing bFGF and sucralfate were prepared and surgically implanted into the stroma mouse cornea adjacent to the temporal limbus. The pellets were formed by making a suspension of 20 μL sterile saline containing 10 μg recombinant bFGF, 10 mg of sucralfate and 10 μL of 12 percent Hydron™ in ethanol. The slurry was then deposited on a 10×10 mm piece of sterile nylon mesh. […]
Mice were dosed on a daily basis for the duration of the assay. […] At day five, the degree of angiogenic inhibition was scored by viewing the neovascular progression with a slit lamp microscope.
The mice were anesthetized and the studied eye was once again proptosed. The maximum vessel length of neovascularization, extending from the limbal vascular plexus toward the pellet was measured. In addition, the contiguous circumferential zone of neovascularization was measured as clock hours, where 30 degrees of arc equals one clock hour. The area of angiogenesis was calculated as follows. […]
The studied mice were thereafter compared to control mice and the difference in the area of neovascularization was recorded.

Series [2] deals with solid tumor cancers (colorectal, pancreatic, ovarian, prostate). As to conditions: patients, cited from earlier work.

Excerpt for recombinant human MMP-13: MMP-13 was expressed in baculovirus as a proenzyme, and purified first over a heparin agarose column and then over a chelating zinc chloride column. The proenzyme was activated by APMA for use in the assay. […] The enzyme was also activated using APMA and was then purified over a hydroxamic acid column.

Turning to `Cl.O=C(NO)C1(CS(=O)(=O)c2ccc(Oc3ccccc3)cc2)CCNCC1` [Example 6, N-Hydroxy-4-[[(4-phenoxyphenyl)sulfonyl]-methyl]-4-piperidinecarboxamide, Monohydrochloride], the IC50 (commonly the concentration that inhibits the measured activity by half) is 2400 nM on recombinant human MMP-1 and 8 nM at recombinant human MMP-13. In addition, in series [1], the “inhibition of area of neovascularization versus control mice” value is on record as 80.0%.
For the compound `Cl.O=C(Nc1ccc(S(=O)(=O)CC2(C(=O)NO)CCNCC2)cc1)c1ccccc1` [Example 1, N-hydroxy-4-[[[4-(benzoylamino)phenyl]sulfonyl]methyl]-4-piperidinecarboxamide, monohydrochloride], the IC50 on recombinant human MMP-1 is greater than 10000 nM; at recombinant human MMP-13, 243 nM. Besides, at recombinant human MMP-1 (comment on Table 13), the “activity against MMP-1 (in words)” value is reported as “virtually unbound”. In addition, the “activity against MMP-13 (in words)” value at recombinant human MMP-13 (comment on Table 13) is given as “moderate activity”.
Regarding `C#CCN1CCCC1(CS(=O)(=O)c1ccc(Oc2ccccc2)cc1)C(=O)NO` (stereo not drawn) [Example 8, N-Hydroxy-2-[[(4-phenoxyphenyl)sulfonyl]-methyl]-1-(2-propynyl)-2-pyrrolidine Carboxamide, Monohydrochloride], the IC50 at recombinant human MMP-13 is 1.3 nM.
On to `C#CCN1CCC(CS(=O)(=O)c2ccc(Oc3ccccc3)cc2)(C(=O)NO)CC1` [Example 4, N-Hydroxy-4-[[(4-phenoxyphenyl)sulfonyl]-methyl]-1-(2-propynyl)-4-piperidinecarboxamide, Monohydrochloride], for which the IC50 turned out to be 485 nM on recombinant human MMP-1 and 0.6 nM on recombinant human MMP-13.
On the same counts, the results for `CC(C)(C)OC(=O)N1CCC(CS(=O)(=O)c2ccc(Oc3ccccc3)cc2)(C(=O)NO)CC1` [Example 5, 1,1-Dimethylethyl Ester 4-[(Hydroxyamino)-carbonyl]-4-[[(4-phenoxyphenyl]sulfonyl]methyl]-1-piperidinecarboxylic Acid] are 475 nM and 0.2 nM.
Consider `O=C(NO)C1(CS(=O)(=O)c2ccc(Oc3ccccc3)cc2)CCN(CCc2ccccc2)CC1` [Example 2, N-Hydroxy-4-[[(4-phenoxyphenyl)sulfonyl]-methyl]-1-(2-phenylethyl)-4-piperidinecarboxamide, Monohydrochloride], for which the IC50 on recombinant human MMP-1 stood at 700 nM.
Take `CNC(=O)[C@@H](NC(=O)[C@H](CC(C)C)[C@H](O)C(=O)NO)C(C)(C)C` [marimastat]: the “effect on cancer-specific antigens used as surrogate markers for biological activity” value in series [2] (Phase I/II studies, meta analysis) is “dose-related reduction in the rise of cancer-specific antigens”. In series [2] (clinical trials), the “most common drug-related toxicity” value is “musculoskeletal pain and stiffness”.
Consider `COc1cccc(CN2CCC(CS(=O)(=O)c3ccc(Oc4ccccc4)cc3)(C(=O)NO)CC2)c1` [Example 3, N-Hydroxy-1-[(3-methoxyphenyl)methyl]-4-[[(4-phenoxyphenyl)sulfonyl]methyl]-4-piperidinecarboxamide, Monohydrochloride], for which the IC50 at recombinant human MMP-1 was 330 nM; on recombinant human MMP-13, 0.4 nM.
Regarding `C#CCN1CCC(CS(=O)(=O)c2ccc(Oc3ccc(C)c(C)c3)cc2)(C(=O)NO)CC1` [Example 7, N-Hydroxy-4-[[[4-(3,4-dimethylphenoxy)phenyl]sulfonyl]-methyl]-1-(2-propynyl)-4-piperidinecarboxamide, Monohydrochloride], the IC50 on recombinant human MMP-13 turned out to be 0.85 nM.
